Laboratory results from patent publication US12479847B2 (DANA-FARBER CANCER INSTITUTE, INC., priority 2019, dated 2025).

Columns and labels:
Experiment in all cases: KINOMEscan (ScanMAX) kinase profiling
Format in all cases: binding
[1] = biological target: T1, panel of 468 kinases (Homo sapiens, UniProt Q9NYY3); details: PLK2; 1 μM; read-out: % control
T1 construct: purchased KINOMEscan (ScanMAX) service

[2] = biological target: T2, panel of 468 kinases (Homo sapiens, UniProt O15197); details: EPHB6; 1 μM; read-out: % control
T2 construct: purchased KINOMEscan (ScanMAX) service
T2 sequence (O15197 32-1021): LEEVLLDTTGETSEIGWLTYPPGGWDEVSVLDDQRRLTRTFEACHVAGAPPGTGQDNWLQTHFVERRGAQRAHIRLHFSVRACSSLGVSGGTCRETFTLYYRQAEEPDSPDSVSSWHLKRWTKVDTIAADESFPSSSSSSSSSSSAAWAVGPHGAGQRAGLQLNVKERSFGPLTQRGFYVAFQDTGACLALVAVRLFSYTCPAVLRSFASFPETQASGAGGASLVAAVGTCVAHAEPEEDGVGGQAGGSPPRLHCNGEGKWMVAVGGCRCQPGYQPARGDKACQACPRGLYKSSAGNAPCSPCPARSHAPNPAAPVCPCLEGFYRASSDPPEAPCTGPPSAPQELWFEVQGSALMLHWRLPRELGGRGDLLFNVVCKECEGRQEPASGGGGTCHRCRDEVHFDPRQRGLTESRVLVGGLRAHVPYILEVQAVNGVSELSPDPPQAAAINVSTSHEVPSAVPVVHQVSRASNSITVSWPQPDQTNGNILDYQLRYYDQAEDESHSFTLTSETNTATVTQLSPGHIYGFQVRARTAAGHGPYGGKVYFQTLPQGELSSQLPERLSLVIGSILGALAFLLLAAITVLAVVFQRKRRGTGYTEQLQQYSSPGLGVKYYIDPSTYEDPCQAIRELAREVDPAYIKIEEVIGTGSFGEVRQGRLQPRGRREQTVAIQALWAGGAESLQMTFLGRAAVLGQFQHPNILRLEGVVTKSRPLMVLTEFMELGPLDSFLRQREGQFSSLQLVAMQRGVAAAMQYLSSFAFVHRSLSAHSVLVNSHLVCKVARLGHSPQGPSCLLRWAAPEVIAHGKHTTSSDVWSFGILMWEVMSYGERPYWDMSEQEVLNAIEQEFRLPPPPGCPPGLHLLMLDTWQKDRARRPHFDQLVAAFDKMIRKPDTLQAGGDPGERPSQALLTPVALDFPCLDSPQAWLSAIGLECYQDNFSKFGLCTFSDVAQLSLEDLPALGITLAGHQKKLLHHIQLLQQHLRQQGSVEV

[3] = biological target: T3, panel of 468 kinases (Homo sapiens, UniProt Q9UEE5); details: DRAK1; 1 μM; read-out: % control
T3 construct: purchased KINOMEscan (ScanMAX) service
T3 sequence (Q9UEE5 1-414): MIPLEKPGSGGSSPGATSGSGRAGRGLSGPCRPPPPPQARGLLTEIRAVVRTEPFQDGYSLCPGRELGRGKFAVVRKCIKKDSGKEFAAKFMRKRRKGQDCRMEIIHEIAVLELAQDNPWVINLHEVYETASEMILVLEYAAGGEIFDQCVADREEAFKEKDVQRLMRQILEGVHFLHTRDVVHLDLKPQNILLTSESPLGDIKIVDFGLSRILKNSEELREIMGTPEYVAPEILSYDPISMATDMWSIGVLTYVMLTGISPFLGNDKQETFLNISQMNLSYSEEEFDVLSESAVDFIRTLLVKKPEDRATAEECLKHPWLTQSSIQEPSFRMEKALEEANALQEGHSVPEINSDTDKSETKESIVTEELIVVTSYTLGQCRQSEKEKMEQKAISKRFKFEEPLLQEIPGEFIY

[4] = biological target: T4, panel of 468 kinases (Homo sapiens, UniProt O75460); details: ERN1; 1 μM; read-out: % control
T4 construct: purchased KINOMEscan (ScanMAX) service

[5] = biological target: T5, panel of 468 kinases (Homo sapiens, UniProt P51451); details: BLK; 1 μM; read-out: % control
T5 construct: purchased KINOMEscan (ScanMAX) service

[6] = biological target: T6, panel of 468 kinases (Homo sapiens, UniProt O00141); details: SGK; 1 μM; read-out: % control
T6 construct: purchased KINOMEscan (ScanMAX) service
T6 sequence (O00141 1-431): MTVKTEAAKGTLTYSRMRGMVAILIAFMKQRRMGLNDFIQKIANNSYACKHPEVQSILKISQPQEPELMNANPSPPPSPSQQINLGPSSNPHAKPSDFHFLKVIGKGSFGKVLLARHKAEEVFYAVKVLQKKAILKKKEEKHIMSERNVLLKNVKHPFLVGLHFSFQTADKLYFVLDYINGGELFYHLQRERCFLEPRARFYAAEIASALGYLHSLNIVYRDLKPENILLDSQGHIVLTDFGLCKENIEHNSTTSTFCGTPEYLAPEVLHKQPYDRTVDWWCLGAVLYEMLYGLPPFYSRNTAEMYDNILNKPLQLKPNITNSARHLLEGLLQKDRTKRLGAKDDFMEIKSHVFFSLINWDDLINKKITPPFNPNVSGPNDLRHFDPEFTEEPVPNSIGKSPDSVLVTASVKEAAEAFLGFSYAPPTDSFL

[7] = biological target: T7, panel of 468 kinases (Homo sapiens, UniProt Q9Y2K2); details: QSK; 1 μM; read-out: % control
T7 construct: purchased KINOMEscan (ScanMAX) service

[8] = biological target: T8, panel of 468 kinases (Homo sapiens, UniProt P52564); details: MEK6; 1 μM; read-out: % control
T8 construct: purchased KINOMEscan (ScanMAX) service
T8 sequence (P52564 1-334): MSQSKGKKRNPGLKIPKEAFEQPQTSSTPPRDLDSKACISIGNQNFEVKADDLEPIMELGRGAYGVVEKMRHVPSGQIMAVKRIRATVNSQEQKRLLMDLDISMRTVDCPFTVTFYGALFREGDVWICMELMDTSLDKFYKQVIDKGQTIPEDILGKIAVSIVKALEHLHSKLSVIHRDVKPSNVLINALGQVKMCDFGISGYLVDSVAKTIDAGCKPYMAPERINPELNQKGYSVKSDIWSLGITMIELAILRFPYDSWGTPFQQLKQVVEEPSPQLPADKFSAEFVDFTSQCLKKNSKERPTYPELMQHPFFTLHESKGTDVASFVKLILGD

T4 sequence (O75460 19-977): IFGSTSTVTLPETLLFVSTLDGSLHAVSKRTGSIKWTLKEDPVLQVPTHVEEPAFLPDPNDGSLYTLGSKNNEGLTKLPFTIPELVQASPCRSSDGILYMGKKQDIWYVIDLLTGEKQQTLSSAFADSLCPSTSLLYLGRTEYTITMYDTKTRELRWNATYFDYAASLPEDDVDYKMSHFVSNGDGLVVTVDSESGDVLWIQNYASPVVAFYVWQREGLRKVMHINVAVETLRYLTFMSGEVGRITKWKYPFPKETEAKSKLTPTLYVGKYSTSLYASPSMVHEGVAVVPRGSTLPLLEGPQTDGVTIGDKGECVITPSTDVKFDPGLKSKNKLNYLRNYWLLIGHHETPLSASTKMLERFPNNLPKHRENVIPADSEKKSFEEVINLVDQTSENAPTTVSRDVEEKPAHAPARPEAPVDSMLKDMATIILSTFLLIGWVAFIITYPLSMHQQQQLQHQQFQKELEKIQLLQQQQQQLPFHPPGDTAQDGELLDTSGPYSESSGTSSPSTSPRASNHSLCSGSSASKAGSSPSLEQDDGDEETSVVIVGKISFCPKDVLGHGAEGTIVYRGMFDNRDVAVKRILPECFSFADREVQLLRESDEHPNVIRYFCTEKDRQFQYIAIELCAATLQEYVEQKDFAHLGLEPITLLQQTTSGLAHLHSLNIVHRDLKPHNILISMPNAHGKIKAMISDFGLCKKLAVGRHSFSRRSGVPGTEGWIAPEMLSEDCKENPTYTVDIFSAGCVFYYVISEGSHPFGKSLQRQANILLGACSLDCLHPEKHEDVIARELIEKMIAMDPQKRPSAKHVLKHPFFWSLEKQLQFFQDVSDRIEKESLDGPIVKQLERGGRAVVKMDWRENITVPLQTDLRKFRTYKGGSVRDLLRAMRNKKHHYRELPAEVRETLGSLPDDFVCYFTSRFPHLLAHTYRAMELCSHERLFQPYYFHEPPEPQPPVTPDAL
T5 sequence (P51451 whole entry): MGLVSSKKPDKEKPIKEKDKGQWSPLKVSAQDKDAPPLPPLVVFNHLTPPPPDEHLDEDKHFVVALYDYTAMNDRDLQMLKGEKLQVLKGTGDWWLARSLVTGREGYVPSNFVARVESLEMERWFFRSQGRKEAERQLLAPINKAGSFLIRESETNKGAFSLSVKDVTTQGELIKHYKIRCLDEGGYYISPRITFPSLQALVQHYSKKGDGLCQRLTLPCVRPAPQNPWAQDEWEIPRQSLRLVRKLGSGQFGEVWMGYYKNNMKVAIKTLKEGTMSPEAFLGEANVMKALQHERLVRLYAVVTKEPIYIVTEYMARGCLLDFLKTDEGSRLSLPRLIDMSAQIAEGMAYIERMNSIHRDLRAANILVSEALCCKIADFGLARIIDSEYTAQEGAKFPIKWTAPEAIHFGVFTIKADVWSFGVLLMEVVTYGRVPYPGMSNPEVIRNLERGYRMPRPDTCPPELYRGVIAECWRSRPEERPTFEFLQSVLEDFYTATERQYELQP
T7 sequence (Q9Y2K2 whole entry): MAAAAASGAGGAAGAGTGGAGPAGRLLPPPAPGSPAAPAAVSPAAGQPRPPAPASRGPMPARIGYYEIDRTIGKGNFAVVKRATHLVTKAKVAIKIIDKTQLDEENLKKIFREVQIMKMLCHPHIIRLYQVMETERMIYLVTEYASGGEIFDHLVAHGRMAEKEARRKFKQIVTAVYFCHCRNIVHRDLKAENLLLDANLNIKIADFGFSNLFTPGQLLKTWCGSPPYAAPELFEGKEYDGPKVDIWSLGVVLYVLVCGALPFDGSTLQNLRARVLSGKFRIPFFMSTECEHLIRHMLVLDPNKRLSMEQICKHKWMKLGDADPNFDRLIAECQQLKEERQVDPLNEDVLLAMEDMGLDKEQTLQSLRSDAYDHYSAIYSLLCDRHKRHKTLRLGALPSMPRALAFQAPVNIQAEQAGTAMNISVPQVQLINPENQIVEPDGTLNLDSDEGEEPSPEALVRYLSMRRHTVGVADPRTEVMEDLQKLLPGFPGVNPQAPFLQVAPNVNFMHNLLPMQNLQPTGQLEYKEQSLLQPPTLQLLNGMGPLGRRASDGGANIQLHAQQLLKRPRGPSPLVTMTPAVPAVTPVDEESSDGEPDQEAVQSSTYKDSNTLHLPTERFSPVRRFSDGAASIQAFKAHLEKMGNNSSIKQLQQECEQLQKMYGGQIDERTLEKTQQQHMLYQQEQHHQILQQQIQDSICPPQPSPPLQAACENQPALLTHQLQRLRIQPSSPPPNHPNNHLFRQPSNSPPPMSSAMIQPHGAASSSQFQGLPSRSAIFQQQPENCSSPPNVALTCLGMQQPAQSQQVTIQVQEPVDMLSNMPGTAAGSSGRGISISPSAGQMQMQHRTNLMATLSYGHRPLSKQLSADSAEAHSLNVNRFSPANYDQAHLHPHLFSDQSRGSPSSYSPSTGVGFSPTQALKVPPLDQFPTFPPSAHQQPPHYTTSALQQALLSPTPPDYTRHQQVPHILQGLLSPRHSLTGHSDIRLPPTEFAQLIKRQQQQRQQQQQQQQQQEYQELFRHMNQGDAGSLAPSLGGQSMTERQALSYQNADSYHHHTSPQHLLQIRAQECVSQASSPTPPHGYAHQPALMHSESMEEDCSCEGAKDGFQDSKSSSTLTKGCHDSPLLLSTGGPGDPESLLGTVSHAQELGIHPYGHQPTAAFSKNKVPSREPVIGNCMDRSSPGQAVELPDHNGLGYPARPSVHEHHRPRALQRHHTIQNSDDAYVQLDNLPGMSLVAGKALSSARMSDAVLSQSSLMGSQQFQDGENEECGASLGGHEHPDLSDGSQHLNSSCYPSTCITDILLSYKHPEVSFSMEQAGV
T1 sequence (Q9NYY3 whole entry): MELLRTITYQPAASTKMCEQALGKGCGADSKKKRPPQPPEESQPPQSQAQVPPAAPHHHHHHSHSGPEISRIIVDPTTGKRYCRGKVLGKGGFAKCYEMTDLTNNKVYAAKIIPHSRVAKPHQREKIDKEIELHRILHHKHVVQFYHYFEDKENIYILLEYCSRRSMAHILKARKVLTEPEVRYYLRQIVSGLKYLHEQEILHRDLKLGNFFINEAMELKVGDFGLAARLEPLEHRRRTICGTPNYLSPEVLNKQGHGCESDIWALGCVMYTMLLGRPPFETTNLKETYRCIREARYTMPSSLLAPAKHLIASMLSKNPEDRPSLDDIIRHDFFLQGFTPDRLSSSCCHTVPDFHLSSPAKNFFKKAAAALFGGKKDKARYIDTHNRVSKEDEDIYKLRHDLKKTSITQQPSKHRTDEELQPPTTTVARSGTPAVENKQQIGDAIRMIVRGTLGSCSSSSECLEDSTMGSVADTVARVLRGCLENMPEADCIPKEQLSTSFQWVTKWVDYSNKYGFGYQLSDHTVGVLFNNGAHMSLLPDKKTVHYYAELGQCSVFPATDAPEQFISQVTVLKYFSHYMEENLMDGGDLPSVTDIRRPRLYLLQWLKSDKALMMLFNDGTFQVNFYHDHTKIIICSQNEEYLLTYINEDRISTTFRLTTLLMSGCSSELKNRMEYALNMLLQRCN

SMILES	remaining binding at 1 µM [1]	remaining binding at 1 µM [2]	remaining binding at 1 µM [3]	remaining binding at 1 µM [4]	remaining binding at 1 µM [5]	remaining binding at 1 µM [6]	remaining binding at 1 µM [7]	remaining binding at 1 µM [8]
CNc1nc(Nc2ccc(C(=O)N3CCC(N4CCOCC4)CC3)c3c2OCO3)nc2[nH]cc(Cl)c12 [Compound 75, (7-((5-chloro-4-(methylamino)-7H-pyrrolo[2,3-d]pyrimidin-2-yl)amino)benzo[d][1,3]dioxol-4-yl)(4-morpholinopiperidin-1-yl)methanone]	82%	51%	2.8%	73%	100%	7.2%	100%	10%
CNc1nc(Nc2ccc(S(=O)(=O)N3CCC(N4CCOCC4)CC3)cc2OC)nc2[nH]cc(Cl)c12 [Compound 12, 5-chloro-N2-(2-methoxy-4-((4-morpholinopiperidin-1-yl)sulfonyl)phenyl)-N4-methyl-7H-pyrrolo[2,3-d]pyrimidine-2,4-diamine]	80%	51%	100%	67%	100%	89%	100%	96%
CNc1nc(Nc2ccc(P3(=O)CCN(C4CCOCC4)CC3)cc2OC)nc2[nH]cc(Cl)c12 [Compound 77, 4-(4-((5-chloro-4-(methylamino)-7H-pyrrolo[2,3-d]pyrimidin-2-yl)amino)-3-methoxyphenyl)-1-(tetrahydro-2H-pyran-4-yl)-1,4-azaphosphinane 4-oxide]	75%	49%	95%	60%	100%	68%	100%	56%
